From ChEMBL document CHEMBL5247642, “Structural Optimization of Fibroblast Growth Factor Receptor Inhibitors for Treating Solid Tumors” (J Med Chem, 2023)
In brackets after ≈: the same amount, converted by molar mass. Activity calls are given as the source filed them. The calls are words filed in the database; no cut-off is given here.

Tests used:
[1] = target: Fibroblast growth factor receptor 2 (Homo sapiens, UniProt P21802); experiment: Inhibition of FGFR2 (unknown origin) using Poly (Glu,Tyr) 4:1 as substrate incubated for 60 mins in presence of ATP by ELISA analysis
[2] = Solubility of compound in PBS at pH 7.4 at 1 to 100 microg/ml by laser nephelometry analysis; type: physicochemical; conditions: dose 1-100 µg/ml
[3] = Stability in rat whole blood assessed as parent compound remaining measured upto 5 hrs by LC-MS/MS analysis; type: ADME, tissue-based
[4] = target: T1, Fibroblast growth factor receptor (Homo sapiens) (UniProt P22607+P11362+P22455+P21802); experiment: Inhibition of FGFR phosphorylation in human SNU-16 cells at 5 nM measured after 12 hrs; type: cell-based
[5] = target: T1, Fibroblast growth factor receptor (Homo sapiens); experiment: Inhibition of FGFR phosphorylation in human SNU-16 cells at 5 nM measured after 24 hrs; type: cell-based
[6] = target: Vascular endothelial growth factor receptor 1 (Homo sapiens) (UniProt P17948); experiment: Inhibition of VEGFR1 (unknown origin) at 1 uM using Poly (Glu,Tyr) 4:1 as substrate incubated for 60 mins in presence of ATP by ELISA analysis relative to control
[7] = target: Fibroblast growth factor receptor 1 (Homo sapiens, UniProt P11362, V561M); experiment: Inhibition of human recombinant FGFR1 V561M mutant (456 to 765 residues) using GGEEEEYFELVKK as substrate incubated for 40 mins presence of [gamma-33P]-ATP by radiometric based scintillation counter assay
[8] = target: Fibroblast growth factor receptor 3 (Homo sapiens, UniProt P22607, V555M); experiment: Inhibition of FGFR3 V555M mutant (unknown origin)
NCI-H522 = experiment: Antiproliferative activity against human NCI-H522 cells assessed as reduction in cell viability measured after 72 hrs; type: functional, cell-based; conditions: NCI-H522, 72 h
NCI-H2228 = experiment: Antiproliferative activity against human NCI-H2228 cells assessed as reduction in cell viability measured after 72 hrs; type: functional, cell-based; conditions: NCI-H2228, 72 h
NCI-H1666 = experiment: Antiproliferative activity against human NCI-H1666 cells assessed as reduction in cell viability measured after 72 hrs; type: functional, cell-based; conditions: NCI-H1666, 72 h
PANC-1 = experiment: Antiproliferative activity against human PANC-1 cells assessed as reduction in cell viability measured after 72 hrs; type: functional, cell-based; conditions: PANC-1, 72 h
Hs746T = experiment: Antiproliferative activity against human Hs746T cells assessed as reduction in cell viability measured after 72 hrs; type: functional, cell-based
BXPC-3 = experiment: Antiproliferative activity against human BXPC-3 cells assessed as reduction in cell viability measured after 72 hrs; type: functional, cell-based; conditions: BXPC-3, 72 h
HCC78 = experiment: Antiproliferative activity against human HCC78 cells assessed as reduction in cell viability measured after 72 hrs; type: functional, cell-based; conditions: HCC78, 72 h
EBC-1 = experiment: Antiproliferative activity against human EBC-1 cells assessed as reduction in cell viability measured after 72 hrs; type: functional, cell-based; conditions: EBC-1, 72 h
A549 = experiment: Antiproliferative activity against human A549 cells assessed as reduction in cell viability measured after 72 hrs; type: functional, cell-based; conditions: A549, 72 h
NCI-H2286 = experiment: Antiproliferative activity against human NCI-H2286 cells assessed as reduction in cell viability measured after 72 hrs; type: functional, cell-based; conditions: NCI-H2286, 72 h
NCI-H520 = experiment: Antiproliferative activity against human NCI-H520 cells assessed as reduction in cell viability measured after 72 hrs; type: functional, cell-based; conditions: NCI-H520, 72 h
[9] = AUC (0 to t) in CD-1 mouse at 3 mg/kg, po measured after 24 hrs by LC-MS/MS analysis; type: ADME, organism-based; design: time 24 hrs, dose 3 mg/kg, route po; conditions: in vivo
[10] = AUC (0 to infinity) in CD-1 mouse at 3 mg/kg, po measured after 24 hrs by LC-MS/MS analysis; type: ADME, organism-based; design: time 24 hrs, dose 3 mg/kg, route po; conditions: in vivo
[11] = AUC (0 to infinity) in CD-1 mouse at 1 mg/kg, iv measured after 24 hrs by LC-MS/MS analysis; type: ADME, organism-based; design: dose 1 mg/kg, time 24 hrs, route iv; conditions: in vivo
[12] = MRT in CD-1 mouse at 3 mg/kg, po measured after 24 hrs by LC-MS/MS analysis; type: ADME, organism-based; conditions: in vivo
[13] = MRT in CD-1 mouse at 1 mg/kg, iv measured after 24 hrs by LC-MS/MS analysis; type: ADME, organism-based; conditions: in vivo
[14] = Half life in CD-1 mouse at 1 mg/kg, iv measured after 24 hrs by LC-MS/MS analysis; type: ADME, organism-based; conditions: in vivo
[15] = Oral bioavailability in CD-1 mouse at 3 mg/kg measured after 24 hrs by LC-MS/MS analysis; type: ADME, organism-based; conditions: in vivo
NCI-H1581 = experiment: Antitumor activity against human NCI-H1581 cells xenografted in po dosed nude mouse assessed as tumor growth inhibition administered once daily for 11 days by microcaliper analysis; type: functional, organism-based; conditions: dose 200-400 mg/kg, time 11.0 day
NCI-H716 [16] = experiment: Antitumor activity against human NCI-H716 cells xenografted in nude mouse assessed as tumor growth inhibition at 400 mg/kg, po administered once daily for 18 days by microcaliper analysis; type: functional, organism-based; conditions: time 18.0 day
NCI-H716 [17] = experiment: Antitumor activity against human NCI-H716 cells xenografted in nude mouse assessed as tumor growth inhibition at 200 mg/kg, po administered once daily for 18 days by microcaliper analysis relative to control; type: functional; design: scale not given: the % may be the effect or the level left; conditions: time 18 day

T1 sequence (P11362 whole entry, looked up): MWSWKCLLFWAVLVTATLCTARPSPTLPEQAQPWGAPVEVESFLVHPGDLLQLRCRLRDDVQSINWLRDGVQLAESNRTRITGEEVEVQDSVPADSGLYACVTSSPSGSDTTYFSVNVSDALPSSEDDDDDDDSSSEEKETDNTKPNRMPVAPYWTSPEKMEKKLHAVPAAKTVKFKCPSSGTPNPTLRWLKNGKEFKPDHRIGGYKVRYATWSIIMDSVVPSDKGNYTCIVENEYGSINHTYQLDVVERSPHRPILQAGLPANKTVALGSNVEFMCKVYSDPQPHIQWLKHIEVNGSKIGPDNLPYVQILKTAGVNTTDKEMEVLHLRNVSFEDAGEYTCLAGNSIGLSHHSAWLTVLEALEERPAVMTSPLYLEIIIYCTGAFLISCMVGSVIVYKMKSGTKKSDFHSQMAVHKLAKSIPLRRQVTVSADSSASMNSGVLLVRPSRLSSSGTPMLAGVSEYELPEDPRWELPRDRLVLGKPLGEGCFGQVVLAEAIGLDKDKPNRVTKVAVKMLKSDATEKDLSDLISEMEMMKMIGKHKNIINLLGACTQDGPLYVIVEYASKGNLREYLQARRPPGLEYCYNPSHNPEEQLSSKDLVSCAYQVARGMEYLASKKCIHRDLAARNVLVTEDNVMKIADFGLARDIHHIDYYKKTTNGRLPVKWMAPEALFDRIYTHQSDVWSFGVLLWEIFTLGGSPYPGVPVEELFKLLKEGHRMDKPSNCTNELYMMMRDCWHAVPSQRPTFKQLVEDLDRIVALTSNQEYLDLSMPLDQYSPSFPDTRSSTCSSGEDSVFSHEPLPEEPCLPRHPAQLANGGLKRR
T1 sequence (P21802 whole entry, looked up): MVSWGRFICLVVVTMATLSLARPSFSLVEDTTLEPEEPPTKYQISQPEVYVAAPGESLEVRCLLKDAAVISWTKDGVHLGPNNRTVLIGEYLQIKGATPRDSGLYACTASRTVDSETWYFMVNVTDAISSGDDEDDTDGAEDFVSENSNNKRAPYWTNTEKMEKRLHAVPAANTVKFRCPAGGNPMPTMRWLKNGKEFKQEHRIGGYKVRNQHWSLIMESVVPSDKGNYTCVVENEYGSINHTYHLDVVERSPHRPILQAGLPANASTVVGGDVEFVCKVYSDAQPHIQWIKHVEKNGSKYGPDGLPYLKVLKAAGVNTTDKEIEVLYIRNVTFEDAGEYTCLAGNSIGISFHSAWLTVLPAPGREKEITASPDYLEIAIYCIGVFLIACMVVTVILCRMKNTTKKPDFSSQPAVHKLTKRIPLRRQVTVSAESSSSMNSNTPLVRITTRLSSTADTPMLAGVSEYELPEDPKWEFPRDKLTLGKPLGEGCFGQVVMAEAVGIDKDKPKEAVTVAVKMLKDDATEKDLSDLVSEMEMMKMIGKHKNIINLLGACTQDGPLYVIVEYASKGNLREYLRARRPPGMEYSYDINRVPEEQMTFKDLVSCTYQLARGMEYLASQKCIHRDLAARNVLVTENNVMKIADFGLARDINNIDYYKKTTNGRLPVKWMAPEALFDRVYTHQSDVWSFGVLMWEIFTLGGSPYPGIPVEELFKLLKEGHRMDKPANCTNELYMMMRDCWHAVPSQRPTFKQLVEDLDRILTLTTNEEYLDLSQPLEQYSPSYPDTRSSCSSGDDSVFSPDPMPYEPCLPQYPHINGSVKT
T1 sequence (P22455 whole entry, looked up): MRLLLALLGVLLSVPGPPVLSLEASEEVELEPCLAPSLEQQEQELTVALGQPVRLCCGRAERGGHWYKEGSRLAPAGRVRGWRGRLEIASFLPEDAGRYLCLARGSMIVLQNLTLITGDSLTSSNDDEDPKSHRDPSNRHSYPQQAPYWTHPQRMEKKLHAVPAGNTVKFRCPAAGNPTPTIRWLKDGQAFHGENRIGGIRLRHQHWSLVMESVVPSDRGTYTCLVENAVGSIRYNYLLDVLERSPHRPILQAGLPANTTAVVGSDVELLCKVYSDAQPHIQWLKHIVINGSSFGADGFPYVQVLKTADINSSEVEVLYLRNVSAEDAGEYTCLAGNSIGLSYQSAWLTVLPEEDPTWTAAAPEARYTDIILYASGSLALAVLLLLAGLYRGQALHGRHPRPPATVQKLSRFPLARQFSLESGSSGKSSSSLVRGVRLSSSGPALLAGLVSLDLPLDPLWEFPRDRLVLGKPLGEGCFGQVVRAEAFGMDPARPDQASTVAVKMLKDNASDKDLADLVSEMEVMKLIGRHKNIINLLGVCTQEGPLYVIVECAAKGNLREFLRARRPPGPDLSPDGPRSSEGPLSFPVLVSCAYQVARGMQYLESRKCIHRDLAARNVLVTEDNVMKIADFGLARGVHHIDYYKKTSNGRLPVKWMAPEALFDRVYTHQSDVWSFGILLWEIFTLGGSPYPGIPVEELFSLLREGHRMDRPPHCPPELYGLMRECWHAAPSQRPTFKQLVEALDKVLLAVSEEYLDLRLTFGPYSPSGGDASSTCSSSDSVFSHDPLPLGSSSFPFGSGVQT
T1 sequence (P22607 whole entry, looked up): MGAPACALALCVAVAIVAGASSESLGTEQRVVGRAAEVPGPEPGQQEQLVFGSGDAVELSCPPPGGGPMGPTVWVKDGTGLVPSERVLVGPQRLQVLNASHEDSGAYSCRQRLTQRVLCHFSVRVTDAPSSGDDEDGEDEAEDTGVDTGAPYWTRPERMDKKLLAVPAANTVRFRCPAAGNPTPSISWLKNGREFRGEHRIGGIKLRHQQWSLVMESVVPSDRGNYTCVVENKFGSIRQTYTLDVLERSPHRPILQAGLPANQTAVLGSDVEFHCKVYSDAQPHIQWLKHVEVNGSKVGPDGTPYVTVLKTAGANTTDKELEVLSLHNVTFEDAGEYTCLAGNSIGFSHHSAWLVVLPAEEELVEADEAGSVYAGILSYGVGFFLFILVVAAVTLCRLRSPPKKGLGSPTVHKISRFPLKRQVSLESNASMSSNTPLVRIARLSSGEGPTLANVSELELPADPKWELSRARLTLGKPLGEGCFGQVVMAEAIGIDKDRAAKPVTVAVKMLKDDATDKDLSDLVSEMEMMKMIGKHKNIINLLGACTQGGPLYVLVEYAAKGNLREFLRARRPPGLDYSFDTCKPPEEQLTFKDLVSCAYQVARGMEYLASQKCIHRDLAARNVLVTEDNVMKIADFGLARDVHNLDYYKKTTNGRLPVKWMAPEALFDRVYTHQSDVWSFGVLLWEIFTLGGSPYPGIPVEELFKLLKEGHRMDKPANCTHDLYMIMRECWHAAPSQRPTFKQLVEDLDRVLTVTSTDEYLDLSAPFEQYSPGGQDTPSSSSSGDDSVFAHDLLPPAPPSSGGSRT
Sequence of Vascular endothelial growth factor receptor 1 (Homo sapiens) (P17948 whole entry, the tested form may be a part): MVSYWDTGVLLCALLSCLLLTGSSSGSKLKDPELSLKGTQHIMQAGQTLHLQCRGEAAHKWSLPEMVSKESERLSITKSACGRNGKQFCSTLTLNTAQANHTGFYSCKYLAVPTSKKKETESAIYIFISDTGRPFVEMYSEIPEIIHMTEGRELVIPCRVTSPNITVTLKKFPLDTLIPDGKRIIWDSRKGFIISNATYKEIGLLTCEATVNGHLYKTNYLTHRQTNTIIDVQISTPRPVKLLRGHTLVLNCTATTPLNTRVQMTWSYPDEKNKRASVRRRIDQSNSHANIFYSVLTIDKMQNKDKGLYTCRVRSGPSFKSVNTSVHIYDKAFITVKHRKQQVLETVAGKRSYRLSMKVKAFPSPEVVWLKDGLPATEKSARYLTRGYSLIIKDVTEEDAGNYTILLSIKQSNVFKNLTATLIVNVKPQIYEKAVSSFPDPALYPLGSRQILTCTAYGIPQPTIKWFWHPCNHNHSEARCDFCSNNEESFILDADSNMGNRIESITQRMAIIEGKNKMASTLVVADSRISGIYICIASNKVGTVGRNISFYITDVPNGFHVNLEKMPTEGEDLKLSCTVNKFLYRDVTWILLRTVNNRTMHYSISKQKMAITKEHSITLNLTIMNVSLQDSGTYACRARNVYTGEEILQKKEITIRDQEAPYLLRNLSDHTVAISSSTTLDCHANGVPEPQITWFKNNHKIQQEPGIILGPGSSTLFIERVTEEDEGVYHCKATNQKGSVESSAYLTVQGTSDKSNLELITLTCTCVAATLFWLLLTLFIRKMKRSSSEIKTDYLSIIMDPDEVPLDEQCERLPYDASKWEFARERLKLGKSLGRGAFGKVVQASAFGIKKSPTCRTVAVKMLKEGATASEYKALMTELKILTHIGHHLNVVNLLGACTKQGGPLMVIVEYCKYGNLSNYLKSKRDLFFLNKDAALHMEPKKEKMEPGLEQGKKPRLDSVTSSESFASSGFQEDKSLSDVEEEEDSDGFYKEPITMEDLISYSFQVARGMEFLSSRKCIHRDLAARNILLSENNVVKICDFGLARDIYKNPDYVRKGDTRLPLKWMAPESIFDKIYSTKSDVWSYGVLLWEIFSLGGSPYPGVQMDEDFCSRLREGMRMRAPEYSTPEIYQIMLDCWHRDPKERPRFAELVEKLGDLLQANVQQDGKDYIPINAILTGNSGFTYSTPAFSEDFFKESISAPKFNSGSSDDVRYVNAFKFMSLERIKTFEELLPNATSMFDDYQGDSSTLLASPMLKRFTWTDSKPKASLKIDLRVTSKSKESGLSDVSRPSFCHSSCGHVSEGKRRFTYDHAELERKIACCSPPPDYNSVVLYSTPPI
Sequence of Fibroblast growth factor receptor 2 (P21802 whole entry): as the sequence (P21802 whole entry, looked up) above

Q: Which results are given for `C=CC(=O)N1CCCC(n2nc3c(=O)[nH]nc(N)c3c2-c2oc3ccc(C)cc3c2C)C1` (centres undefined)?
A: IC50 [1]: 0.0136 µM; solubility kinetic [2]: 50 µg/mL (≈ 116 µM); Stability [3]: Stable; inhibition [4]: Active; inhibition [5]: Active; inhibition [6]: < 50%; IC50 [7]: > 5 µM; IC50 [8]: 2 µM; IC50 (NCI-H522): > 10 µM; IC50 (NCI-H2228): > 10 µM; IC50 (NCI-H1666): > 10 µM; IC50 (PANC-1): > 10 µM; IC50 (Hs746T): > 10 µM; IC50 (BXPC-3): > 10 µM; IC50 (HCC78): > 10 µM; IC50 (EBC-1): > 10 µM; IC50 (A549): > 10 µM; IC50 (NCI-H2286): > 10 µM; IC50 (NCI-H520): > 10 µM; AUC(0-t) at 24 h [9]: 70.2 ng·h/mL; AUC(0-inf) [10]: 75.4 ng·h/mL; AUC [11]: 116 ng·h/mL; MRT [12]: 69.6 min; MRT [13]: 15.1 min; half-life [14]: 37.5 min; bioavailability [15]: 20.4%; Activity (NCI-H1581): Dose-Dependent Effect; Activity (NCI-H716 [16]): Active; Activity (NCI-H716 [17]): 83.5%
